Laboratory results taken from US20080227732A1, “Treatment and Control of Severe Infections Including Cystic Fibrosis” (VENUS REMEDIES LIMITED, priority 2005, published 2008).

Columns and labels:
[1] = febrile children with neutropenia, 5 to 10 days of therapy; cited from earlier work
[2] = test system: Klebsiella; assay: Bacterial susceptibility test, disc diffusion on Müeller-Hinton Agar; type: cell-based, Klebsiella pneumoniae; details: Concentration 2.18 g
Experimental: (§1) This test was performed by disc diffusion test for ceftazidime and tobramycin on Müeller-Hinton Agar medium purchased from Hi Media. The medium was prepared and used as per manufacturer's instructions. Ceftazidime alone, Tobramycin alone and the combination of Ceftazidime and Tobramycin, on different micro-organisms was taken. […] For each concentration the three zones were observed i.e for combination, Ceftazidime alone and Tobramycin alone and tested for efficacy against various types of micro-organisms.

[3] = test system: Stapylococcus; assay: as above; type: cell-based, Staphylococcus (MSSA); details: Concentration 2.18 g
Experimental: as §1

[4] = test system: P. aurignosa; assay: as above; type: cell-based; details: for zone of inhibition: Concentration 560 mg; for Zone size: Concentration 1.12 g
Experimental: as §1

[5] = test system: E. coli; assay: as above; type: cell-based; details: for Zone size: Concentration 1.12 g; for zone of inhibition: Escherichia coli, Concentration 560 mg
Experimental: as §1

[6] = test system: C. albicanus; assay: as above; type: cell-based; details: Concentration 2.18 g
Experimental: as §1

[7] = test system: MRSA; assay: as above; type: cell-based; details: for zone of inhibition: Staphylococcus aureus, MRSA, Concentration 560 mg
Experimental: as §1

[8] = cited from earlier work
[9] = High: C 2.0, T 0.18, I 2.18 mg/ml
[10] = Highest: C 20.0, T 1.8, I 21.8 mg/ml
[11] = Low: C 0.2, T 0.018, I 0.218 mg/ml
[12] = High: C 0.5, T 0.06, I 0.56 mg/ml
[13] = Highest: C 5.0, T 0.6, I 5.6 mg/ml
[14] = Low: C 0.05, T 0.006, I 0.056 mg/ml
[15] = Lowest: C 0.005, T 0.0006, I 0.0056 mg/ml
[16] = High: C 1.0, T 0.12, I 1.12 mg/ml
[17] = Highest: C 10.0, T 1.2, I 11.2 mg/ml
[18] = Low: C 0.1, T 0.01, I 0.112 mg/ml
[19] = Lowest: C 0.01, T 0.001, I 0.011 mg/ml
[20] = Lowest: C 0.02, T 0.0018, I 0.0218 mg/ml
[21] = Concentration 1.12 g, High: C 1.0, T 0.12, I 1.12 mg/ml
[22] = Concentration 1.12 g, Highest: C 10.0, T 1.2, I 11.2 mg/ml
[23] = Concentration 1.12 g, Low: C 0.1, T 0.01, I 0.112 mg/ml
[24] = Concentration 1.12 g, Lowest: C 0.01, T 0.001, I 0.011 mg/ml
[25] = Concentration 2.18 g, High: C 2.0, T 0.18, I 2.18 mg/ml
[26] = Concentration 2.18 g, Highest: C 20.0, T 1.8, I 21.8 mg/ml

Structure (SMILES) | Zone size [2, 9] [mm] | Zone size [2, 10] [mm] | Zone size [2, 11] [mm] | Zone size [3, 9] [mm] | Zone size [3, 10] [mm] | Zone size [3, 11] [mm] | zone of inhibition [4, 12] [mm] | zone of inhibition [4, 13] [mm] | zone of inhibition [4, 14] [mm] | zone of inhibition [4, 15] [mm] | Zone size [4, 16] [mm] | Zone size [4, 17] [mm] | Zone size [4, 18] [mm] | Zone size [4, 19] [mm] | Zone size [5, 16] [mm] | Zone size [5, 17] [mm] | Zone size [5, 18] [mm] | Zone size [5, 19] [mm] | zone of inhibition [5, 12] [mm] | zone of inhibition [5, 13] [mm] | other results
CC(C)(O/N=C(\C(=O)N[C@@H]1C(=O)N2C(C(=O)[O-])=C(C[n+]3ccccc3)CS[C@H]12)c1csc(N)n1)C(=O)O [C, Ceftazidime] | 47.47 | 51.22 | 46.30 | 35.76 | 50.93 | 22.45 | 36 | 41.8 | 24.5 | 14.4 | 44.10 | 48.34 | 32.48 | 29.34 | 42.10 | 47.34 | 35.49 | 33.34 | 42.1 | 47.3 | patients clinically cured at the end of therapy [1]: 67%; zone of inhibition [5, 14]: 35.5 mm; zone of inhibition [5, 15]: 33.3 mm; Zone size [6, 9]: 31.25 mm; Zone size [6, 10]: 37.55 mm; Zone size [6, 11]: 18.37 mm; Zone size [6, 20]: 12.90 mm; Zone size [7, 21]: 12.53 mm; Zone size [7, 22]: 22.39 mm; Zone size [7, 23]: 0 mm; Zone size [7, 24]: 0 mm; Zone size [7, 25]: 27.32 mm; Zone size [7, 26]: 44.93 mm; zone of inhibition [7, 12]: 12.9 mm; zone of inhibition [7, 13]: 21.2 mm; zone of inhibition [7, 15]: 0 mm; overall response rate in septicaemia ([8]; cancer patients): 75%; overall response rate ([8]; episodes of infection in cancer patients): 60%
NC[C@H]1O[C@H](O[C@H]2[C@H](O)[C@@H](O[C@H]3O[C@H](CO)[C@@H](O)[C@H](N)[C@H]3O)[C@H](N)C[C@@H]2N)[C@H](N)C[C@@H]1O [T, Tobramycin] | 32.07 | 38.71 | 31.50 | 27.49 | 36.96 | 16.68 | 21.2 | 32.1 | 16.7 | 10.9 | 23.02 | 30.31 | 19.16 | 11.35 | 25.02 | 30.30 | 22.16 | 14.35 | 25 | 30.3 | zone of inhibition [5, 14]: 22.2 mm; zone of inhibition [5, 15]: 14.3 mm; Zone size [6, 9]: 26.45 mm; Zone size [6, 10]: 35.47 mm; Zone size [6, 11]: 15.65 mm; Zone size [6, 20]: 0 mm; Zone size [7, 21]: 22.45 mm; Zone size [7, 22]: 33.22 mm; Zone size [7, 23]: 10.24 mm; Zone size [7, 24]: 9.89 mm; Zone size [7, 25]: 14.61 mm; Zone size [7, 26]: 17.13 mm; zone of inhibition [7, 12]: 23.9 mm; zone of inhibition [7, 13]: 32.4 mm; zone of inhibition [7, 14]: 11.7 mm; zone of inhibition [7, 15]: 9.46 mm
